Measured values from patent US11214565B2, “Compound, compositions, and methods” (Denali Therapeutics Inc., priority 2015, dated 2022).

molecular target: LRRK2 G2019S enzyme (Homo sapiens (Human), UniProt Q5S007, G2019S); experiment: LRRK2 G2019S TR-FRET biochemical kinase assay (LRRKtide substrate); conditions: Table D-4; 5 nM LRRK2, 134 μM ATP, 60 minute reaction, 23° C.
Outline: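 TR-FRET phospho-LRRKtide readout (2 nM antibody, 10 mM EDTA, 60 min) after a 60 min, 23 °C kinase reaction. The reaction used 134 μM ATP and 5 nM enzyme in pH 7.5 Tris/MgCl2/EGTA/DTT buffer, with compound and enzyme-substrate mix preincubated for 20 min beforehand.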

Sequence of LRRK2 G2019S enzyme (Q5S007 whole entry G2019S): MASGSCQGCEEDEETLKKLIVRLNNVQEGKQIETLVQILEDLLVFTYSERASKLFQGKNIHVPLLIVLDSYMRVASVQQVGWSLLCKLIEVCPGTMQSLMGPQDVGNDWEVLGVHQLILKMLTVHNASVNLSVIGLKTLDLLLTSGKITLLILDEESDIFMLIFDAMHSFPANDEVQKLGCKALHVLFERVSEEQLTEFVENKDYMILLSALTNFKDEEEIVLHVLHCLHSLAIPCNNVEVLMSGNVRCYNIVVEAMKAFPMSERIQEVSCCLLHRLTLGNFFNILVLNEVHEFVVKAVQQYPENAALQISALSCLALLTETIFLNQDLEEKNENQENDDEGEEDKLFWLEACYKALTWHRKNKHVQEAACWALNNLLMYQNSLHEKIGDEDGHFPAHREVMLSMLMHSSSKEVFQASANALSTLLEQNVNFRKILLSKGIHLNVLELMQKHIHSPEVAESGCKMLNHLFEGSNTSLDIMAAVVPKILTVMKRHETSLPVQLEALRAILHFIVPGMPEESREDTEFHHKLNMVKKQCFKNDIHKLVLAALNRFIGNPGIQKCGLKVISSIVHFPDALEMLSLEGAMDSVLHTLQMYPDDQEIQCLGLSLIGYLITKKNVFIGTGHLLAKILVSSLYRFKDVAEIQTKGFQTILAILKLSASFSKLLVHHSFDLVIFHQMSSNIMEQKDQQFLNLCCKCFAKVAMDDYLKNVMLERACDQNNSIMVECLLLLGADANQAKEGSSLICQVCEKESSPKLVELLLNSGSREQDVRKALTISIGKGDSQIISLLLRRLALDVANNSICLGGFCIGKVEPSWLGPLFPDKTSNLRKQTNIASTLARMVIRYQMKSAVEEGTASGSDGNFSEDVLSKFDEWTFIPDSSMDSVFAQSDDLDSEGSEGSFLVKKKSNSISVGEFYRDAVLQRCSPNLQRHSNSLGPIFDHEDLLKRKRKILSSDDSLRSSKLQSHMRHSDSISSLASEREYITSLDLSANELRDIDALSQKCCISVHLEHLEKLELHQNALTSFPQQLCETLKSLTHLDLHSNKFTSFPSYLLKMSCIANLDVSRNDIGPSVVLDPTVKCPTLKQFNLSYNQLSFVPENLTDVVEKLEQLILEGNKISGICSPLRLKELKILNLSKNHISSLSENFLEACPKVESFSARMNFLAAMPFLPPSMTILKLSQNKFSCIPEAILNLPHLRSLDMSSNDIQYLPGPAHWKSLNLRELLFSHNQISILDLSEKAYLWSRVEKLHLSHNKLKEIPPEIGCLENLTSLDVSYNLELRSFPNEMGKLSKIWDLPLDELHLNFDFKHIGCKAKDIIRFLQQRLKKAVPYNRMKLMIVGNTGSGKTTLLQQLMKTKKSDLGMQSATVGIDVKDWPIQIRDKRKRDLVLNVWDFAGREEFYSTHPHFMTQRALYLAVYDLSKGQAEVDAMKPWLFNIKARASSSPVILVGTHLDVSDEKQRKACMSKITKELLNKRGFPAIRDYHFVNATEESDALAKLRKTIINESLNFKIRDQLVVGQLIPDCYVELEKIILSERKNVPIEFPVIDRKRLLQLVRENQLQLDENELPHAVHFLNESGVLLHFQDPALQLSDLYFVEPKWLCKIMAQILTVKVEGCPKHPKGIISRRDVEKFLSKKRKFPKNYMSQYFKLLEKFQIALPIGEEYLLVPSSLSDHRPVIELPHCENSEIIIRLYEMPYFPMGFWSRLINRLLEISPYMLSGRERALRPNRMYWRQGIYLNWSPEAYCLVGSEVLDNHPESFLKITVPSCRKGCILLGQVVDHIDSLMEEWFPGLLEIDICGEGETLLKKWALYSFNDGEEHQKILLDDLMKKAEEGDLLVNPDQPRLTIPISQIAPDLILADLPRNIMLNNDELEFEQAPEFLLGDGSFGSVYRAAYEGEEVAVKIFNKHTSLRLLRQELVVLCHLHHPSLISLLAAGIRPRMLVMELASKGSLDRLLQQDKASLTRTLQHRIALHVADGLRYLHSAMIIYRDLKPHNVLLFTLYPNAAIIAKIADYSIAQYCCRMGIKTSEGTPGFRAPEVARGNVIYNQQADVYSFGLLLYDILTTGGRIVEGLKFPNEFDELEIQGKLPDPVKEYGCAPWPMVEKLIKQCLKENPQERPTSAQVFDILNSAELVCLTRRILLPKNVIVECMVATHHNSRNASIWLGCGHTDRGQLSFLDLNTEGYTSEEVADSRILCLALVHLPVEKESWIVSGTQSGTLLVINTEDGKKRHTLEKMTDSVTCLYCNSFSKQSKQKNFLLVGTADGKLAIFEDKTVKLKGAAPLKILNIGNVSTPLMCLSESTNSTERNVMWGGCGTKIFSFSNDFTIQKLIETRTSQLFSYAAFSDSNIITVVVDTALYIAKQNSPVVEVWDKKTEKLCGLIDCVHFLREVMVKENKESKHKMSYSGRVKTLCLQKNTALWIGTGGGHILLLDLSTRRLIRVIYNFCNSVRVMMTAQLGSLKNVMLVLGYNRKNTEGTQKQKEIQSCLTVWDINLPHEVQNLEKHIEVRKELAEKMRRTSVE

Row | IC50 [µM] | SMILES
1 | > 0.06 | CCSc1nc(Nc2cn(C(C)(C)C#N)nc2C)ncc1C#N [Compound D-47, 2-[[1-(1-cyano-1-methyl-ethyl)-3-methyl-pyrazol-4-yl]amino]-4-ethylsulfanyl-pyrimidine-5-carbonitrile]
2 | < 0.03 | CNc1nc(Nc2cnn([C@H]3C[C@@H](n4cccn4)C3)c2C)ncc1C(F)(F)F [Compound D-49, cis-N4-methyl-N2-[5-methyl-1-(3-pyrazol-1-ylcyclobutyl)pyrazol-4-yl]-5-(trifluoromethyl)pyrimidine-2,4-diamine]
3 | < 0.03 | CCNc1nc(Nc2cn(C3CCc4ncsc43)nc2C)ncc1C(F)(F)F [Compound D-57]
4 | < 0.03 | CCNc1nc(Nc2cnn([C@H]3C[C@H](n4nccn4)C3)c2C)ncc1C(F)(F)F [Compound D-58]
5 | < 0.03 | CCNc1nc(Nc2cnn([C@H]3C[C@H](n4ncnc4C(F)(F)F)C3)c2C)ncc1C(F)(F)F [Compound D-61]
6 | > 0.06 | CCNc1nc(Nc2cn(C3CCn4ccnc43)nc2Cl)ncc1C(F)(F)F [Compound D-62]
7 | < 0.03 | Cc1c(Nc2ncc(C(F)(F)F)c(NCC(F)F)n2)cnn1[C@H]1C[C@@H](n2cccn2)C1 [Compound D-63]
8 | < 0.03 | CCNc1nc(Nc2cnn(C3CCn4nccc43)c2C)ncc1C(F)(F)F [Compound D-65]
9 | < 0.03 | CCNc1nc(Nc2cn([C@H]3C[C@H](c4cocn4)C3)nc2C)ncc1C(F)(F)F [Compound D-66]
10 | < 0.03 | CNc1nc(Nc2cnn(C(C)COC(F)F)c2C)ncc1C(F)(F)F [Compound D-70]
11 | < 0.03 | CNc1nc(Nc2cnn([C@H]3C[C@H](n4cccn4)C3)c2C)ncc1C(F)(F)F [Compound D-71]
12 | < 0.03 | CCNc1nc(Nc2cnn([C@H]3C[C@H](n4ccnn4)C3)c2C)ncc1C(F)(F)F [Compound D-73]
13 | < 0.03 | Cc1c(Nc2ncc(C(F)(F)F)c(NCC(F)F)n2)cnn1[C@H]1C[C@H](n2nccn2)C1 [Compound D-75]
14 | < 0.03 | CNc1nc(Nc2cnn([C@H]3C[C@@H](n4nccn4)C3)c2C)ncc1C(F)(F)F [Compound D-77]
15 | > 0.06 | CCNc1nc(Nc2cnn(C3CCCn4ccnc43)c2C)ncc1C(F)(F)F [Compound D-78]
16 | < 0.03 | CNc1nc(Nc2cn([C@H]3C[C@@H](c4nncs4)C3)nc2C)ncc1C(F)(F)F [Compound D-83]
17 | < 0.03 | CCNc1nc(Nc2cnn([C@H]3C[C@H](n4cc(F)cn4)C3)c2C)ncc1C(F)(F)F [Compound D-88]

Row | IC50 [µM] | SMILES
18 | < 0.03 | CNc1nc(Nc2cnn(C3CCC(n4nccn4)C3)c2C)ncc1C(F)(F)F [Compound D-90]
19 | 0.03 to 0.06 | CCNc1nc(Nc2cn(C3CCCn4ccnc43)nc2C)ncc1C(F)(F)F [Compound D-92]
20 | < 0.03 | CCNc1nc(Nc2cnn([C@H]3C[C@@H](n4cccn4)C3)c2C)ncc1C(F)(F)F [Compound D-93]
21 | < 0.03 | CNc1nc(Nc2cn([C@H]3C[C@H](n4cccn4)C3)nc2C)ncc1C(F)(F)F [Compound D-94]
22 | > 0.06 | CNc1nc(Nc2cn(C3CCCc4c3cnn4C)nc2C)ncc1C(F)(F)F [Compound D-95]
23 | < 0.03 | CCNc1nc(Nc2cnn(C3CCc4ncsc43)c2C)ncc1C(F)(F)F [Compound D-97]
24 | < 0.03 | CCNc1nc(Nc2cn(C(F)(F)C(=O)NC)nc2C)ncc1C(F)(F)F [Compound D-100]
25 | < 0.03 | CCNc1nc(Nc2cn(C(F)(F)C(N)=O)nc2C)ncc1C(F)(F)F [Compound D-101]
26 | < 0.03 | CNc1nc(Nc2cnn([C@H]3C[C@H](n4cnc(C)n4)C3)c2C)ncc1C(F)(F)F [Compound D-108]
27 | < 0.03 | CNc1nc(Nc2cnn([C@H]3C[C@H](n4cccn4)C3)c2C)ncc1Br [Compound D-111]
28 | < 0.03 | CNc1nc(Nc2cnn(C3CCC(n4ccnn4)C3)c2C)ncc1C(F)(F)F [Compound D-112]
29 | < 0.03 | CCNc1nc(Nc2cn([C@H]3C[C@@H](c4cocn4)C3)nc2C)ncc1C(F)(F)F [Compound D-113]
30 | < 0.03 | CNc1nc(Nc2cnn(C3CCC(n4nccn4)C3)c2C)ncc1C(F)(F)F [Compound D-114]
31 | < 0.03 | CCNc1nc(Nc2cnn([C@H]3C[C@H](OC(F)F)C3)c2C)ncc1C(F)(F)F [Compound D-116]
32 | < 0.03 | CCNc1nc(Nc2cnn([C@H]3C[C@@H](n4ccnn4)C3)c2C)ncc1C(F)(F)F [Compound D-123]
33 | < 0.03 | COc1nc(Nc2cn(C3CCn4ccnc43)nc2C)ncc1C(F)(F)F [Compound D-127]
34 | < 0.03 | COc1nc(Nc2cnn([C@H]3C[C@H](n4nccn4)C3)c2C)ncc1Br [Compound D-129]

Second part, the compound before the results:

Row | SMILES | IC50 [µM]
35 | CSc1nc(Nc2cn(C(C)(C)C#N)nc2C)ncc1C(F)(F)F [Compound D-46, 2-methyl-2-[3-methyl-4-[[4-methylsulfanyl-5-(trifluoromethyl)pyrimidin-2-yl]amino]pyrazol-1-yl]propanenitrile] | 0.03 to 0.06
36 | CNc1nc(Nc2cnn(C(C)COC(F)F)c2C)ncc1C(F)(F)F [Compound D-48, N2-[1-[2-(difluoromethoxy)-1-methyl-ethyl]-5-methyl-pyrazol-4-yl]-5-(difluoromethyl-fluoranyl)-N4-methyl-pyrimidine-2,4-diamine] | < 0.03
37 | CNc1nc(Nc2cnn([C@H]3C[C@@H](S(C)(=O)=O)C3)c2C)ncc1C(F)(F)F [Compound D-50, cis-N4-methyl-N2-[5-methyl-1-(3-methylsulfonylcyclobutyl)pyrazol-4-yl]-5-(trifluoromethyl)pyrimidine-2,4-diamine] | < 0.03
38 | CNc1nc(Nc2cnn(C3CCc4c3cnn4C)c2C)ncc1C(F)(F)F [Compound D-56] | < 0.03
39 | CCNc1nc(Nc2cnn([C@H]3C[C@@H](n4cncn4)C3)c2C)ncc1C(F)(F)F [Compound D-59] | < 0.03
40 | CCNc1nc(Nc2cnn(C3Cc4nccn4C3)c2C)ncc1C(F)(F)F [Compound D-60] | < 0.03
41 | CNc1nc(Nc2cnn([C@H]3C[C@H](n4cc(F)cn4)C3)c2C)ncc1C(F)(F)F [Compound D-64] | < 0.03
42 | CNc1nc(Nc2cn(C3CCn4cncc43)nc2C)ncc1C(F)(F)F [Compound D-67] | > 0.06
43 | CCOc1nc(Nc2cn(C3CCn4ccnc43)nc2C)ncc1C(F)(F)F [Compound D-68] | > 0.06
44 | CNc1nc(Nc2cn(C3CCC(n4ccnn4)C3)nc2C)ncc1C(F)(F)F [Compound D-69] | < 0.03
45 | CNc1nc(Nc2cn(C3(c4ncnn4C)CCC3)nc2C)ncc1C(F)(F)F [Compound D-72] | > 0.06
46 | CCNc1nc(Nc2cn(C3Cc4nccn4C3)nc2C)ncc1C(F)(F)F [Compound D-74] | < 0.03
47 | CCNC(=O)C(F)(F)n1cc(Nc2ncc(C(F)(F)F)c(NCC)n2)c(C)n1 [Compound D-76] | < 0.03
48 | CCNc1nc(Nc2cn(C3CCc4c(C)noc43)nc2C)ncc1C(F)(F)F [Compound D-79] | < 0.03
49 | CCNc1nc(Nc2cn(C(C)COC(F)F)nc2C)ncc1C(F)(F)F [Compound D-80] | < 0.03
50 | CCNc1nc(Nc2cnn([C@H]3C[C@@H](N4CCOCC4)C3)c2C)ncc1C(F)(F)F [Compound D-81] | < 0.03
51 | CCNc1nc(Nc2cnn(C(C)COC(F)F)c2C)ncc1C(F)(F)F [Compound D-82] | < 0.03
52 | CCNc1nc(Nc2cnn([C@H]3C[C@H](c4cocn4)C3)c2C)ncc1C(F)(F)F [Compound D-84] | < 0.03
53 | CCNc1nc(Nc2cnn([C@H]3C[C@H](n4nccn4)C3)c2C)ncc1Br [Compound D-85] | < 0.03

Row | SMILES | IC50 [µM]
54 | Cc1c(Nc2ncc(C(F)(F)F)c(NCC(F)F)n2)cnn1[C@H]1C[C@H](n2cccn2)C1 [Compound D-87] | < 0.03
55 | CCNc1nc(Nc2cnn([C@H]3C[C@H](c4nncs4)C3)c2C)ncc1C(F)(F)F [Compound D-89] | < 0.03
56 | CCNc1nc(Nc2cnn(C3CCc4c(C)noc43)c2C)ncc1C(F)(F)F [Compound D-91] | < 0.03
57 | CCNc1nc(Nc2cnn([C@H]3C[C@H](n4cccn4)C3)c2C)ncc1C(F)(F)F [Compound D-98] | < 0.03
58 | CNc1nc(Nc2cn(C3CCn4c(Cl)cnc43)nc2C)ncc1C(F)(F)F [Compound D-99] | < 0.03
59 | CCNc1nc(Nc2cnn([C@H]3C[C@H](N4CCCC4=O)C3)c2C)ncc1C(F)(F)F [Compound D-103] | < 0.03
60 | CCNc1nc(Nc2cnn(C3CCn4ccnc43)c2Cl)ncc1C(F)(F)F [Compound D-104] | < 0.03
61 | Cc1c(Nc2ncc(C(F)(F)F)c(NC3CC3)n2)cnn1[C@H]1C[C@H](n2cccn2)C1 [Compound D-106] | < 0.03
62 | CNc1nc(Nc2cnn([C@H]3C[C@H](n4ncnc4C)C3)c2C)ncc1C(F)(F)F [Compound D-109] | < 0.03
63 | CCNc1nc(Nc2cnn(C3CCn4cncc43)c2C)ncc1C(F)(F)F [Compound D-110] | < 0.03
64 | CNc1nc(Nc2cn(C3(c4ncn(C)n4)CC3)nc2C)ncc1C(F)(F)F [Compound D-115] | > 0.06
65 | CCNc1nc(Nc2cnn([C@H]3C[C@H](n4cncn4)C3)c2C)ncc1C(F)(F)F [Compound D-117] | < 0.03
66 | CCNc1nc(Nc2cnn([C@H]3C[C@@H](n4ncnc4C(F)(F)F)C3)c2C)ncc1C(F)(F)F [Compound D-118] | < 0.03
67 | Cc1c(Nc2ncc(C(F)(F)F)c(NC3CC3)n2)cnn1[C@H]1C[C@H](n2nccn2)C1 [Compound D-119] | < 0.03
68 | CCOc1nc(Nc2cn(C(F)(F)C(N)=O)nc2C)ncc1C(F)(F)F [Compound D-120] | < 0.03
69 | CNc1nc(Nc2cnn(C3CCC(n4ccnn4)C3)c2C)ncc1C(F)(F)F [Compound D-124] | < 0.03
70 | CNc1nc(Nc2cn(C3CCC(n4ccnn4)C3)nc2C)ncc1C(F)(F)F [Compound D-125] | 0.03 to 0.06
71 | CCNc1nc(Nc2cnn(C3CCc4cn[nH]c43)c2C)ncc1C(F)(F)F [Compound D-126] | > 0.06
72 | CNc1nc(Nc2cnn([C@H]3C[C@H](n4nccn4)C3)c2C)ncc1Br [Compound D-128] | < 0.03
